We go through 19 compounds from paper PMC9467586, “Development of novel 9-O-substituted-13-octylberberine derivatives as potential anti-hepatocellular carcinoma agents” (Journal of Enzyme Inhibition and Medicinal Chemistry, 2022).

Molecules are shown by their SMILES. Read-outs that look alike come from different tables or passages of the source. Some results are limits rather than exact numbers.

Series [1] deals with H22 liver cancer xenograft. In words: In vivo anti-HCC assay, H22 liver cancer xenograft mouse model. The following applies: 20 mg/kg, intravenous, once a day for 21 days, H22 mice. Details: species or system mice. How it is done:
Five-week-old male Institute of Cancer Research (ICR) mice were purchased from Shanghai SLAC Laboratory Animals Co. Ltd. Briefly, a total of 1 × 10^6 H22 cells were subcutaneously inoculated into the right flank of ICR mice according to protocols of tumour transplant research, to initiate tumour growth. After incubation for one day, mice were weighed and randomly divided into 5 groups of 8 animals. The groups were administered berberine (30 mg/kg) and 6k (15 or 30 mg/kg) in a vehicle of 10% DMF/2% Tween 80/88% saline, respectively. Vehicle and cyclophosphamide (20 mg/kg) were employed as negative and positive controls, respectively. Treatments were performed by intravenous injection once per day for a total of 21 consecutive days. Body weights and tumour volumes were measured every 2 days. The mice were sacrificed after the treatments, and the tumours were excised and weighed. The tumour volume and inhibition rate (w/w) were calculated as follows: tumour volume = L × W^2/2, where L is the length and W is the width; tumour inhibitory ratio (%) = (1-average tumour weight of treated group/average tumour weight of control group) × 100%. All procedures were performed following institutional approval in accordance with the NIH Guide for the Care and Use of Laboratory Animals.

Series [2] relates to HepG2 cells. In words: In vitro antiproliferative MTT assay, HepG2 cells. Type of series: cell-based, human. The following applies: 72 h, mean ± SD (n = 3), read-out: IC50 (antiproliferative activity against HepG2 cells). How it is done: (§1) HepG2, Sk-Hep-1, Huh-7, Hep3B and L-02 cells were purchased from Nanjing Key Gen Biotech Co. Ltd. (Nanjing, China). The cytotoxicity of test compounds was determined using an MTT assay. Briefly, the cell lines were incubated at 37 °C in a humidified 5% CO2 incubator for 24 h in 96-microwell plates. After medium removal, 100 μL of culture medium with 0.1% DMSO containing test compounds at different concentrations was added to each well and incubated at 37 °C for another 72 h. The MTT (5 mg/mL in PBS) was added and incubated for another 4 h, the optical density was detected with a microplate reader at 490 nm. The IC50 values were calculated according to the dose-dependent curves. All the experiments were repeated in at least three independent experiments.
(In general: Tetrazolium assays rely on reduction of a dye to a coloured formazan, in cell work by metabolically active cells.)

The subject of series [3] is Hep3B cells. The series is described as follows: In vitro antiproliferative MTT assay, Hep3B cells. Format: cell-based, human. The following applies: 72 h, mean ± SD (n = 3). As for the experimental part: as §1
In series [4] the test system is normal hepatocytes L-02. In words: MTT cytotoxicity assay, normal hepatocytes L-02. Type of series: cell-based. The following applies: normal hepatocytes L-02, MTT, 72 h, mean ± SD (n = 3). How it is done: as §1
Series [5] relates to Sk-Hep-1 cells. The series is described as follows: In vitro antiproliferative MTT assay, Sk-Hep-1 cells. Format: cell-based, human. The conditions noted are these: 72 h, mean ± SD (n = 3). As for the experimental part:
as §1

Series [6] deals with Huh-7 cells. In words: In vitro antiproliferative MTT assay, Huh-7 cells. Format: cell-based, human. The conditions noted are these: 72 h, mean ± SD (n = 3). As for the experimental part:
as §1

On to `O=P1(N(CCCl)CCCl)NCCCO1` (stereo not drawn) [CP, cyclophosphamide, reference compound], for which the “tumour inhibitory rate (TIR, w/w)” value in series [1] turned out to be 64.2%.

As usually defined, the IC50 is the concentration that gives 50% inhibition. Consider `N.N.[Cl][Pt][Cl]` [Cisplatin], for which the IC50 in series [2] worked out at 6.87 ± 0.31 µM; in series [3] it was 11.2 ± 0.51 µM; in series [4], 6.79 ± 0.46 µM; in series [5], 6.52 ± 0.42 µM; in series [6] it was 3.03 ± 0.63 µM.

For the compound `COc1ccc2c(Cc3ccccc3)c3[n+](cc2c1OC)CCc1cc2c(cc1-3)OCO2` [Compound 3a, 13-Benzyl-9,10-dimethoxy-5,6-dihydro-[1,3]dioxolo[4,5-g]isoquinolino[3,2-a]isoquinolin-7-ium bromide], the IC50 in series [2] (Homo sapiens) was > 50 µM.

Turning to `CCCCCCc1c2[n+](cc3c(OC)c(OC)ccc13)CCc1cc3c(cc1-2)OCO3` [Compound 3b, 13-Hexyl-9,10-dimethoxy-5,6-dihydro-[1,3]dioxolo[4,5-g]isoquinolino[3,2-a]isoquinolin-7-ium chloride], the IC50 in series [2] (Homo sapiens) is 6.14 ± 0.57 µM.

In the case of `CCCCCCCCCCc1c2[n+](cc3c(OC)c(OC)ccc13)CCc1cc3c(cc1-2)OCO3` [Compound 3d, 13-Decyl-9,10-dimethoxy-5,6-dihydro-[1,3]dioxolo[4,5-g]isoquinolino[3,2-a]isoquinolin-7-ium chloride], the concentration for half-maximal inhibition (IC50) in series [2] (Homo sapiens) came to 4.45 ± 0.34 µM.

As for `CCCCCCCCCCCCc1c2[n+](cc3c(OC)c(OC)ccc13)CCc1cc3c(cc1-2)OCO3` [Compound 3e, 13-Dodecyl-9,10-dimethoxy-5,6-dihydro-[1,3]dioxolo[4,5-g]isoquinolino[3,2-a]isoquinolin-7-ium chloride], in series [2] (Homo sapiens), the IC50 was determined as 4.24 ± 0.44 µM.

The term melting point denotes the temperature, or range, at which the solid turns liquid. `CCCCCCCCc1c2[n+](cc3c(OCCCN(CC)CC)c(OC)ccc13)CCc1cc3c(cc1-2)OCO3.[Br-]` [Compound 6a, 9–(3-(Diethylamino)propoxy)-10-methoxy-13-octyl-5,6-dihydro-[1,3]dioxolo[4,5-g]isoquinolino[3,2-a]isoquinolin-7-ium bromide] registered a melting point of 142 to 144 °C. Also, the IC50 in series [2] (Homo sapiens) turned out to be 6.82 ± 0.51 µM.

Compound `CCCCCCCCc1c2[n+](cc3c(OCCCN4CCCC4)c(OC)ccc13)CCc1cc3c(cc1-2)OCO3.[Br-]` [Compound 6b, 10-Methoxy-13-octyl-9–(3-(pyrrolidin-1-yl)propoxy)-5,6-dihydro-[1,3]dioxolo[4,5-g]isoquinolino[3,2-a]isoquinolin-7-ium bromide] yielded a melting point of 135 to 137 °C. Besides, in series [2] (Homo sapiens), the IC50 is 7.75 ± 0.83 µM.

Compound `CCCCCCCCc1c2[n+](cc3c(OCCCN4CCOCC4)c(OC)ccc13)CCc1cc3c(cc1-2)OCO3.[Br-]` [Compound 6c, 10-Methoxy-9–(3-morpholinopropoxy)-13-octyl-5,6-dihydro-[1,3]dioxolo[4,5-g]isoquinolino[3,2-a]isoquinolin-7-ium bromide] registered a melting point of 167 to 169 °C. Also, the IC50 in series [2] (Homo sapiens) came out at 6.25 ± 0.56 µM.

In turn, `CCCCCCCCc1c2[n+](cc3c(OCCCCCCN(CC)CC)c(OC)ccc13)CCc1cc3c(cc1-2)OCO3.[Br-]` [Compound 6d, 9-((6-(Diethylamino)hexyl)oxy)-10-methoxy-13-octyl-5,6-dihydro-[1,3]dioxolo[4,5-g]isoquinolino[3,2-a]isoquinolin-7-ium bromide] yielded a melting point of 149 to 151 °C. The IC50 in series [2] (Homo sapiens) was determined as 4.75 ± 0.24 µM.

In turn, `CCCCCCCCc1c2[n+](cc3c(OCCCCCCN4CCCC4)c(OC)ccc13)CCc1cc3c(cc1-2)OCO3.[Br-]` [Compound 6e, 10-Methoxy-13-octyl-9-((6-(pyrrolidin-1-yl)hexyl)oxy)-5,6-dihydro-[1,3]dioxolo[4,5-g]isoquinolino[3,2-a]isoquinolin-7-ium bromide] gave a melting point of 126 to 128 °C. Moreover, the IC50 in series [2] (Homo sapiens) came to 3.91 ± 0.36 µM.

For the compound `CCCCCCCCc1c2[n+](cc3c(OCCCCCCN4CCOCC4)c(OC)ccc13)CCc1cc3c(cc1-2)OCO3.[Br-]` [Compound 6f, 10-Methoxy-9-((6-morpholinohexyl)oxy)-13-octyl-5,6-dihydro-[1,3]dioxolo[4,5-g]isoquinolino[3,2-a]isoquinolin-7-ium bromide], the melting point fell in the range of 164 to 166 °C. For the same compound, the IC50 in series [2] (Homo sapiens) was 1.27 ± 0.25 µM.

On to `CCCCCCCCc1c2[n+](cc3c(OCCCCCCN4CCCCC4)c(OC)ccc13)CCc1cc3c(cc1-2)OCO3.[Br-]` [Compound 6g, 10-Methoxy-13-octyl-9-((6-(piperidin-1-yl)hexyl)oxy)-5,6-dihydro-[1,3]dioxolo[4,5-g]isoquinolino[3,2-a]isoquinolin-7-ium bromide], for which the melting point fell in the range of 132 to 134 °C. Moreover, the IC50 in series [2] (Homo sapiens) is 1.64 ± 0.13 µM.

With `CCCCCCCCc1c2[n+](cc3c(OCCCCCCN4CCN(C)CC4)c(OC)ccc13)CCc1cc3c(cc1-2)OCO3.[Br-]` [Compound 6h, 10-Methoxy-9-((6–(4-methylpiperazin-1-yl)hexyl)oxy)-13-octyl-5,6-dihydro-[1,3]dioxolo[4,5-g]isoquinolino[3,2-a]isoquinolin-7-ium bromide], the melting point was 165 to 167 °C. Besides, the IC50 in series [2] (Homo sapiens) was found to be 1.47 ± 0.19 µM.

Take `CCCCCCCCc1c2[n+](cc3c(OCCCCCCCCN4CCOCC4)c(OC)ccc13)CCc1cc3c(cc1-2)OCO3.[Br-]` [Compound 6i, 10-Methoxy-9-((8-morpholinooctyl)oxy)-13-octyl-5,6-dihydro-[1,3]dioxolo[4,5-g]isoquinolino[3,2-a]isoquinolin-7-ium bromide]: the melting point is 147 to 149 °C. Moreover, the concentration for half-maximal inhibition (IC50) in series [2] (Homo sapiens) was 0.81 ± 0.08 µM.

The compound `CCCCCCCCc1c2[n+](cc3c(OCCCCCCCCN4CCCCC4)c(OC)ccc13)CCc1cc3c(cc1-2)OCO3.[Br-]` [Compound 6j, 10-Methoxy-13-octyl-9-((8-(piperidin-1-yl)octyl)oxy)-5,6-dihydro-[1,3]dioxolo[4,5-g]isoquinolino[3,2-a]isoquinolin-7-ium bromide] showed a melting point of 144 to 146 °C. Further, the IC50 in series [2] (Homo sapiens) came to 1 ± 0.1 µM.

On to `CCCCCCCCc1c2[n+](cc3c(OCCCCCCCCCCN4CCOCC4)c(OC)ccc13)CCc1cc3c(cc1-2)OCO3.[Br-]` [Compound 6l, 10-Methoxy-9-((10-morpholinodecyl)oxy)-13-octyl-5,6-dihydro-[1,3]dioxolo[4,5-g]isoquinolino[3,2-a]isoquinolin-7-ium bromide], for which the melting point was 135 to 137 °C. Also, in series [2] (Homo sapiens), the IC50 came to 1.28 ± 0.11 µM.

`CCCCCCCCc1c2[n+](cc3c(OCCCCCCCCCCN4CCCCC4)c(OC)ccc13)CCc1cc3c(cc1-2)OCO3.[Br-]` [Compound 6m, 10-Methoxy-13-octyl-9-((10-(piperidin-1-yl)decyl)oxy)-5,6-dihydro-[1,3]dioxolo[4,5-g]isoquinolino[3,2-a]isoquinolin-7-ium bromide] yielded a melting point of 142 to 144 °C. Moreover, the IC50 in series [2] (Homo sapiens) came out at 1.44 ± 0.13 µM.

With `CCCCCCCCc1c2[n+](cc3c(OCCCCCCCCCCN4CCN(C)CC4)c(OC)ccc13)CCc1cc3c(cc1-2)OCO3.[Br-]` [Compound 6n, 10-Methoxy-9-((10–(4-methylpiperazin-1-yl)decyl)oxy)-13-octyl-5,6-dihydro-[1,3]dioxolo[4,5-g]isoquinolino[3,2-a]isoquinolin-7-ium bromide], the melting point fell in the range of 136 to 138 °C. For the same compound, the IC50 in series [2] (Homo sapiens) came out at 1.08 ± 0.1 µM.
